pIC50: −log10 of the molar value.
biological target: T1, recombinant human GR (Homo sapiens, UniProt P04150); assay: Human Glucocorticoid Receptor (GR) Assay, fluorescence polarization (GRhuFL_FP_v2, GR-binders); format: binding
T1 construct: purchased Panvera/Invitrogen P2812 (kit P2893)
T1 sequence (P04150 1-777): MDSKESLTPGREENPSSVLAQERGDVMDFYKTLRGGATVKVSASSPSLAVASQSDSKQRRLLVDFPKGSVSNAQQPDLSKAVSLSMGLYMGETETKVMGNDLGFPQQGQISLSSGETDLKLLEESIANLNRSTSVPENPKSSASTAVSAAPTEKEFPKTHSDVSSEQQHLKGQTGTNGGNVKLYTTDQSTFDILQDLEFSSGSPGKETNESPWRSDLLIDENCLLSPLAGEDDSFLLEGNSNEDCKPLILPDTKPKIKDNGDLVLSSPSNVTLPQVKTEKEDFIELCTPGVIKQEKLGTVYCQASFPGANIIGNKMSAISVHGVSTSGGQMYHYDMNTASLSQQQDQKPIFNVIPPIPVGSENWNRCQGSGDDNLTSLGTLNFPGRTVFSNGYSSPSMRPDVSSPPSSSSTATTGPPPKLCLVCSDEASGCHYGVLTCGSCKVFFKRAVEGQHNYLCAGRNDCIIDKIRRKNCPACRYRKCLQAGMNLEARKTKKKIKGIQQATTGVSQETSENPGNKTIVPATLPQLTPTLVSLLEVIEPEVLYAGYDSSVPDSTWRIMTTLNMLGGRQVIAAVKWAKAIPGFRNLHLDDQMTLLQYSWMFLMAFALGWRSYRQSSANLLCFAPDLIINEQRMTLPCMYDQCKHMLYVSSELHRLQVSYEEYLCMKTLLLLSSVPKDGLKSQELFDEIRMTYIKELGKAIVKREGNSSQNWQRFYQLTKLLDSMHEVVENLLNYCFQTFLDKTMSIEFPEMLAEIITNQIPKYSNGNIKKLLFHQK
Procedure: Human Glucocorticoid Receptor (GR) Assay
The assay is based on a commercial kit from Panvera/Invitrogen (Part number P2893). The assay technology is fluorescence polarization. […] The GR and Stabilizing Peptide reagents are stored at −70° C. while the GS Red is stored at −20° C. Also included in the kit are 1M DTT (Panvera, Part number P2325, stored at −20° C.) and GR Screening buffer 10× (Panvera, Part number P2814, stored at −70° C. initially but once thawed stored at room temperature). Avoid repeated freeze/thaws for all reagents. The GR Screening buffer 10× comprises 100 mM potassium phosphate, 200 mM sodium molybdate, 1 mM EDTA and 20% DMSO.
0% control was 100% DMSO and 100% control was 10 μM Dexamethasone. Background solution (8 μL; assay buffer 10×, Stabilizing Peptide, DTT and ice cold MQ water) was added to the background wells. GS Red solution (7 μL; assay buffer 10×, Stabilizing Peptide, DTT, GS Red and ice cold water) was added to all wells except background wells. GR solution (7 μL; assay buffer 10×, Stabilizing Peptide, DTT, GR and ice cold water) was added to all wells. The plate was sealed and incubated in a dark at room temperature for 2 hours.

Row | SMILES | pIC50
1 | CCC(CC)n1nc(C)c(S(=O)(=O)N[C@@H](C)COc2cccc3c2cnn3-c2ccc(F)cc2)c1C [Example 46, 1-(1-Ethylpropyl)-N-((1S)-2-{[1-(4-fluorophenyl)-1H-indazol-4-yl]oxy}-1-methylethyl)-3,5-dimethyl-1H-pyrazole-4-sulfonamide] | 7.74
2 | COc1ncc(-n2ncc3c(NC[C@H](C)NS(=O)(=O)c4c(C)nn(C5CCCC5)c4C)cccc32)cn1 [Example 28, 1-Cyclopentyl-N-((1S)-2-{[1-(2-methoxypyrimidin-5-yl)-1H-indazol-4-yl]amino}-1-methylethyl)-3,5-dimethyl-1H-pyrazole-4-sulfonamide] | 7.64
3 | Cc1cc(C)c(S(=O)(=O)N[C@@H](C)CNc2cccc3c2cnn3-c2cccnc2)c(C)c1 [Example 16, 2,4,6-Trimethyl-N-{(1S)-1-methyl-2-[(1-pyridin-3-yl-1H-indazol-4-yl)amino]ethyl}benzenesulfonamide] | 8.25
4 | Cc1cc(C)c(S(=O)(=O)N[C@@H](C)CNc2cccc3c2cnn3-c2cccc(C(=O)O)c2)c(C)c1 [Example 18, 3-[4-({(2S)-2-[(2,4,6-Trimethylbenzenesulfonyl)amino]propyl}amino)-1H-indazol-1-yl]benzoic acid] | 7.24
5 | Cc1cc(C)c(S(=O)(=O)N[C@@H](C)CNc2cccc3c2cnn3-c2ccncc2)c(C)c1 [Example 14, 2,4,6-Trimethyl-N-{(1S)-1-methyl-2-[(1-pyridin-4-yl-1H-indazol-4-yl)amino]ethyl}benzenesulfonamide] | 8.37
6 | Cc1cc(C)c(S(=O)(=O)N[C@@H](C)CCc2cccc3c(-c4ccc(F)cc4)n[nH]c23)c(C)c1 [Example 53, N-{(1S)-3-[3-(4-Fluorophenyl)-1H-indazol-7-yl]-1-methylpropyl}-2,4,6-trimethylbenzenesulfonamide] | 8.00
7 | Cc1n[nH]c(C)c1S(=O)(=O)N[C@@H](C)COc1cccc2c1cnn2-c1ccc(F)cc1 [Example 41, N-((1S)-2-{[1-(4-Fluorophenyl)-1H-indazol-4-yl]oxy}-1-methylethyl)-3,5-dimethyl-1H-pyrazole-4-sulfonamide] | 8.82
8 | Cc1n[nH]c(C)c1S(=O)(=O)N[C@@H](C)COc1cccc2c1cnn2-c1cccnc1 [Example 42, 3,5-Dimethyl-N-{(1S)-1-methyl-2-[(1-pyridin-3-yl-1H-indazol-4-yl)oxy]ethyl}-1H-pyrazole-4-sulfonamide] | 5.40
9 | Cc1cc(C)c(S(=O)(=O)N[C@H](CNc2cccc3c2cnn3-c2ccc(F)cc2)C(C)C)c(C)c1 [Example 35, N-[(1S)-1-({[1-(4-Fluorophenyl)-1H-indazol-4-yl]amino}methyl)-2-methylpropyl]-2,4,6-trimethylbenzenesulfonamide] | 8.10
10 | Cc1nn(C2CCCC2)c(C)c1S(=O)(=O)N[C@@H](C)CNc1cccc2c1cnn2-c1ccc(OC(F)(F)F)cc1 [Example 27, 1-Cyclopentyl-3,5-dimethyl-N-[(1S)-1-methyl-2-({1-[4-(trifluoromethoxy)phenyl]-1H-indazol-4-yl}amino)ethyl]-1H-pyrazole-4-sulfonamide] | 7.92
11 | Cc1cc(C)c(S(=O)(=O)N[C@@H](C)CNc2cccc3c2cnn3-c2cncnc2)c(C)c1 [Example 15, 2,4,6-Trimethyl-N-{(1S)-1-methyl-2-[(1-pyrimidin-5-yl-1H-indazol-4-yl)amino]ethyl}benzenesulfonamide] | 8.27
12 | Cc1cc(C)c(S(=O)(=O)N[C@@H](C)CNc2cccc3c2cnn3-c2ccccc2)c(C)c1 [Example 7, 2,4,6-Trimethyl-N-{(1S)-1-methyl-2-[(1-phenyl-1H-indazol-4-yl)amino]ethyl}benzenesulfonamide] | 8.46
13 | COc1ccc(-n2ncc3c(NC[C@H](C)NS(=O)(=O)c4c(C)cc(C)cc4C)cccc32)cc1 [Example 5, N-((1S)-2-{[1-(4-Methoxyphenyl)-1H-indazol-4-yl]amino}-1-methylethyl)-2,4,6-trimethylbenzenesulfonamide] | 8.27
14 | Cc1cc(C)c(S(=O)(=O)NC(COc2cccc3c2cnn3-c2ccc(F)cc2)C(F)(F)F)c(C)c1 (stereo not drawn) [Example 4] | 8.40
15 | COc1cccc(-n2ncc3c(NC[C@H](C)NS(=O)(=O)c4c(C)cc(C)cc4C)cccc32)c1 [Example 8, N-((1S)-2-{[1-(3-Methoxyphenyl)-1H-indazol-4-yl]amino}-1-methylethyl)-2,4,6-trimethylbenzenesulfonamide] | 8.16
16 | Cc1cc(C)c(S(=O)(=O)N[C@@H](C)CNc2cccc3c2cnn3-c2ccc(F)nc2)c(C)c1 [Example 3, N-((1S)-2-{[1-(6-Fluoropyridin-3-yl)-1H-indazol-4-yl]amino}-1-methylethyl)-2,4,6-trimethylbenzenesulfonamide] | 8.64
17 | Cc1cc(C)c(S(=O)(=O)NC(C)CSc2cccc3c2cnn3-c2ccc(F)cc2)c(C)c1 (stereo not drawn) [Example 36, N-[2-[1-(4-Fluorophenyl)indazol-4-yl]sulfanyl-1-methylethyl]-2,4,6-trimethyl-benzenesulfonamide] | 8.12
18 | Cc1cc(C)c(S(=O)(=O)N[C@@H](C)CNc2ccc(F)c3c2cnn3-c2ccc(F)cc2)c(C)c1 [Example 33, N-((1S)-2-{[7-Fluoro-1-(4-fluoro-phenyl)-1H-indazol-4-yl]amino}-1-methylethyl)-2,4,6-trimethylbenzenesulfonamide] | 8.26
19 | Cc1ccc(-n2ncc3c(NC[C@H](C)NS(=O)(=O)c4ccccc4)cccc32)cc1 [Example 51] | 7.70
20 | Cc1cc(C)c(S(=O)(=O)NC[C@@H](C)Nc2cccc3c2cnn3-c2ccc(F)cc2)c(C)c1 [Example 24, N-((2R)-2-{[1-(4-Fluorophenyl)-1H-indazol-4-yl]amino}propyl)-2,4,6-trimethylbenzenesulfonamide] | 8.06
21 | Cc1nn([C@H]2CCOC2)c(C)c1S(=O)(=O)N[C@@H](C)COc1cccc2c1cnn2-c1ccc(F)cc1 [Example 47, N-((1S)-2-{[1-(4-Fluorophenyl)-1H-indazol-4-yl]oxy}-1-methylethyl)-3,5-dimethyl-1-[(3S)-tetrahydrofuran-3-yl]-1H-pyrazole-4-sulfonamide] | 7.44
22 | Cc1cc(C)c(S(=O)(=O)N[C@@H](C)CNc2cccc3c2cnn3C2CCCC2)c(C)c1 [Example 50, N-{(1S)-2-[(1-Cyclopentyl-1H-indazol-4-yl)amino]-1-methylethyl}-2,4,6-trimethylbenzene sulfonamide] | 8.15
23 | Cc1nn(C2CCCC2)c(C)c1S(=O)(=O)N[C@@H](C)CNc1cccc2c1cnn2-c1ccc(C#N)cc1 [Example 30, N-((1S)-2-{[1-(4-Cyanophenyl)-1H-indazol-4-yl]amino}-1-methylethyl)-1-cyclopentyl-3,5-dimethyl-1H-pyrazole-4-sulfonamide] | 8.33
24 | Cc1nn(C(C)(C)C)c(C)c1S(=O)(=O)N[C@@H](C)COc1cccc2c1cnn2-c1ccc(F)cc1 [Example 43, 1-tert-Butyl-N-((1S)-2-[{1-(4-fluorophenyl)-1H-indazol-4-yl]oxy}-1-methylethyl)-3,5-dimethyl-1H-pyrazole-4-sulfonamide] | 7.89
25 | Cc1nn(C2CCCC2)c(C)c1S(=O)(=O)N[C@@H](C)CNc1cccc2c1cnn2-c1ccc(F)cc1 [Example 25] | 8.42
26 | Cc1cc(C)c(S(=O)(=O)N[C@@H](C)CNc2c(F)ccc3c2cnn3-c2ccc(F)cc2)c(C)c1 [Example 32, N-((1S)-2-{[5-Fluoro-1-(4-fluorophenyl)-1H-indazol-4-yl]amino}-1-methylethyl)-2,4,6-trimethylbenzenesulfonamide] | 8.38
27 | Cc1cc(C)c(S(=O)(=O)N[C@@H](C)CNc2c(C)ccc3c2cnn3-c2ccc(F)cc2)c(C)c1 [Example 23, N-((1S)-2-{[1-(4-Fluorophenyl)-5-methyl-1H-indazol-4-yl]amino}-1-methylethyl)-2,4,6-trimethylbenzenesulfonamide] | 8.14

Reference: patent publication US20090124607A1, “Novel Bicyclic Sulfonamides for Use as Glucocorticoid Receptor Modulators in the Treatment of Inflammatory Diseases” (priority 2005, published 2009)
